Laboratory results taken from ChEMBL document CHEMBL4418297, “2,5,6,7-tetrasubstituted thiazolo[4,5-b]pyridine derivatives and use thereof” (2018).

System: Mus musculus
Test: Antiinflammatory activity in iv dosed ICR mouse model of CLP-induced sepsis assessed as increase in survival rate
Type: functional

`CCCNc1nc2nc3c(c(-c4ccc(OC)cc4)c2s1)CCCC3` was tested, and the Survival was 40%.

With `CCCNc1nc2nc3c(c(-c4ccc(OC)cc4)c2s1)CCCCC3` the Survival was 40%.

For `CCCNc1nc2nc3c(c(-c4ccccc4)c2s1)CCCCC3`, the Survival was 40%.

`O=[N+]([O-])c1ccc(-c2c3c(nc4nc(N5CCCC5)sc24)CCCC3)cc1` showed a Survival of 40%.
